HELM strings list units from the 5' end as sugar, base in round brackets, then linkage (d deoxyribose, r ribose, m 2'-O-methyl, p phosphodiester). Strings are as the collection lists them; they lack the last nucleoside at the 3' end of the tested compound. [moe] = 2'-O-(2-methoxyethyl) (MOE); [sp] = phosphorothioate linkage; [m5C] = 5-methylcytosine
The substances below were run against ATXN2 (assay: mouse, dose not given). Settings: ASO.

Row | Substance | 3 h FOB score
1 | RNA1{[moe](T)[sp].[moe](T)p.[moe](G)p.[moe](A)p.[moe](A)p.d(T)[sp].d(T)[sp].d(A)[sp].d([m5C])[sp].d(A)[sp].d(A)[sp].d(T)[sp].d(G)[sp].d([m5C])[sp].d(G)[sp].[moe](G)p.[moe](T)p.[moe](A)[sp].[moe](T)}$$$$ (last 3' nucleoside missing) | 4 score 0-7
2 | RNA1{[moe](T)[sp].[moe](T)p.[moe](G)p.[moe](T)p.[moe](A)p.d([m5C])[sp].d(T)[sp].d(T)[sp].d([m5C])[sp].d(A)[sp].d([m5C])[sp].d(A)[sp].d(T)[sp].d(T)[sp].d(T)[sp].[moe](G)p.[moe](G)p.[moe](A)[sp].[moe](G)}$$$$ (last 3' nucleoside missing) | 3.75 score 0-7
3 | RNA1{[moe](T)[sp].[moe](T)p.[moe](G)p.[moe](T)p.[moe](T)p.d(A)[sp].d([m5C])[sp].d(T)[sp].d(G)[sp].d(T)[sp].d(T)[sp].d(T)[sp].d([m5C])[sp].d(G)[sp].d(A)[sp].[moe]([m5C])p.[moe]([m5C])p.[moe](T)[sp].[moe]([m5C])}$$$$ (last 3' nucleoside missing) | 4.25 score 0-7
4 | RNA1{[moe](T)[sp].[moe](T)p.[moe](G)p.[moe](T)p.[moe](T)p.d([m5C])[sp].d(T)[sp].d(T)[sp].d([m5C])[sp].d([m5C])[sp].d(A)[sp].d(A)[sp].d(T)[sp].d(T)[sp].d(T)[sp].[moe]([m5C])p.[moe](A)p.[moe](G)[sp].[moe](A)}$$$$ (last 3' nucleoside missing) | 0 score 0-7
5 | RNA1{[moe](T)[sp].[moe](T)p.[moe](G)p.[moe]([m5C])p.[moe](A)p.d([m5C])[sp].d(A)[sp].d(T)[sp].d(A)[sp].d(G)[sp].d(G)[sp].d(T)[sp].d(T)[sp].d(A)[sp].d(G)[sp].[moe](A)p.[moe](A)p.[moe](T)[sp].[moe](T)}$$$$ (last 3' nucleoside missing) | 6.5 score 0-7
6 | RNA1{[moe](T)[sp].[moe](T)p.[moe](T)p.[moe](G)p.[moe](A)p.d(A)[sp].d(T)[sp].d(T)[sp].d(A)[sp].d([m5C])[sp].d(A)[sp].d(A)[sp].d(T)[sp].d(G)[sp].d([m5C])[sp].[moe](G)p.[moe](G)p.[moe](T)[sp].[moe](A)}$$$$ (last 3' nucleoside missing) | 3.5 score 0-7
7 | RNA1{[moe](T)[sp].[moe](T)p.[moe](T)p.[moe](G)p.[moe](T)p.d(T)[sp].d(A)[sp].d([m5C])[sp].d(T)[sp].d(G)[sp].d(T)[sp].d(T)[sp].d(T)[sp].d([m5C])[sp].d(G)[sp].[moe](A)p.[moe]([m5C])p.[moe]([m5C])[sp].[moe](T)}$$$$ (last 3' nucleoside missing) | 5 score 0-7
8 | RNA1{[moe](T)[sp].[moe](T)p.[moe](T)p.[moe](G)p.[moe]([m5C])p.d(T)[sp].d(T)[sp].d(A)[sp].d(T)[sp].d(T)[sp].d(A)[sp].d(T)[sp].d(T)[sp].d([m5C])[sp].d(T)[sp].[moe]([m5C])p.[moe](A)p.[moe]([m5C])[sp].[moe](A)}$$$$ (last 3' nucleoside missing) | 0 score 0-7
9 | RNA1{[moe](T)[sp].[moe](T)p.[moe](T)p.[moe](T)p.[moe](G)p.d(A)[sp].d(A)[sp].d(T)[sp].d(T)[sp].d(A)[sp].d([m5C])[sp].d(A)[sp].d(A)[sp].d(T)[sp].d(G)[sp].[moe]([m5C])p.[moe](G)p.[moe](G)[sp].[moe](T)}$$$$ (last 3' nucleoside missing) | 2 score 0-7
10 | RNA1{[moe](T)[sp].[moe](T)p.[moe](T)p.[moe](T)p.[moe](G)p.d([m5C])[sp].d(T)[sp].d(T)[sp].d(A)[sp].d(T)[sp].d(T)[sp].d(A)[sp].d(T)[sp].d(T)[sp].d([m5C])[sp].[moe](T)p.[moe]([m5C])p.[moe](A)[sp].[moe]([m5C])}$$$$ (last 3' nucleoside missing) | 0 score 0-7
11 | RNA1{[moe](T)[sp].[moe](T)p.[moe](T)p.[moe](T)p.[moe](T)p.d(G)[sp].d([m5C])[sp].d(T)[sp].d(T)[sp].d(A)[sp].d(T)[sp].d(T)[sp].d(A)[sp].d(T)[sp].d(T)[sp].[moe]([m5C])p.[moe](T)p.[moe]([m5C])[sp].[moe](A)}$$$$ (last 3' nucleoside missing) | 0 score 0-7
12 | RNA1{[moe](T)[sp].[moe](T)p.[moe](T)p.[moe](T)p.[moe]([m5C])[sp].d(T)[sp].d([m5C])[sp].d(A)[sp].d(T)[sp].d(G)[sp].d(T)[sp].d(G)[sp].d([m5C])[sp].[moe](G)p.[moe](G)p.[moe]([m5C])[sp].[moe](A)}$$$$ (last 3' nucleoside missing) | 5.5 score 0-7
13 | RNA1{[moe](T)[sp].[moe](T)p.[moe](T)p.[moe](T)p.[moe]([m5C])p.d(T)[sp].d([m5C])[sp].d(A)[sp].d(T)[sp].d(G)[sp].d(T)[sp].d(G)[sp].d([m5C])[sp].d(G)[sp].d(G)[sp].[moe]([m5C])p.[moe](A)p.[moe](T)[sp].[moe]([m5C])}$$$$ (last 3' nucleoside missing) | 5 score 0-7
14 | RNA1{[moe](T)[sp].[moe](T)p.[moe](T)p.[moe]([m5C])p.[moe](T)p.d([m5C])[sp].d(A)[sp].d(T)[sp].d(G)[sp].d(T)[sp].d(G)[sp].d([m5C])[sp].d(G)[sp].d(G)[sp].d([m5C])[sp].[moe](A)p.[moe](T)p.[moe]([m5C])[sp].[moe](A)}$$$$ (last 3' nucleoside missing) | 6 score 0-7
15 | RNA1{[moe](T)[sp].[moe](T)p.[moe]([m5C])p.[moe](T)[sp].[moe]([m5C])[sp].d(T)[sp].d(A)[sp].d(T)[sp].d(T)[sp].d(T)[sp].d([m5C])[sp].d(T)[sp].d(T)[sp].d(T)[sp].d(G)[sp].[moe](T)p.[moe]([m5C])p.[moe]([m5C])[sp].[moe](A)}$$$$ (last 3' nucleoside missing) | 4 score 0-7
16 | RNA1{[moe](T)[sp].[moe](T)p.[moe]([m5C])p.[moe](T)p.[moe](G)[sp].d(T)[sp].d(A)[sp].d([m5C])[sp].d(T)[sp].d(T)[sp].d(T)[sp].d(T)[sp].d([m5C])[sp].[moe](T)p.[moe]([m5C])p.[moe](A)[sp].[moe](T)}$$$$ (last 3' nucleoside missing) | 2.5 score 0-7
17 | RNA1{[moe](T)[sp].[moe](T)p.[moe]([m5C])p.[moe](T)p.[moe](G)[sp].d([m5C])[sp].d(T)[sp].d(A)[sp].d(A)[sp].d([m5C])[sp].d(T)[sp].d(G)[sp].d(G)[sp].[moe](T)p.[moe](T)p.[moe](T)[sp].[moe](G)}$$$$ (last 3' nucleoside missing) | 1.75 score 0-7
18 | RNA1{[moe](T)[sp].[moe](T)p.[moe]([m5C])p.[moe](T)p.[moe](G)p.d(T)[sp].d(A)[sp].d([m5C])[sp].d(T)[sp].d(T)[sp].d(T)[sp].d(T)[sp].d([m5C])[sp].d(T)[sp].d([m5C])[sp].[moe](A)p.[moe](T)p.[moe](G)[sp].[moe](T)}$$$$ (last 3' nucleoside missing) | 4.5 score 0-7
19 | RNA1{[moe](T)[sp].[moe](T)p.[moe]([m5C])p.[moe](T)p.[moe](G)p.d([m5C])[sp].d(T)[sp].d(A)[sp].d(A)[sp].d([m5C])[sp].d(T)[sp].d(G)[sp].d(G)[sp].d(T)[sp].d(T)[sp].[moe](T)p.[moe](G)p.[moe]([m5C])[sp].[moe]([m5C])}$$$$ (last 3' nucleoside missing) | 2 score 0-7
20 | RNA1{[moe](T)[sp].[moe](T)p.[moe]([m5C])p.[moe](T)p.[moe]([m5C])[sp].d(T)[sp].d(A)[sp].d(T)[sp].d(T)[sp].d(T)[sp].d([m5C])[sp].d(T)[sp].d(T)[sp].[moe](T)p.[moe](G)p.[moe](T)[sp].[moe]([m5C])}$$$$ (last 3' nucleoside missing) | 1 score 0-7
21 | RNA1{[moe](T)[sp].[moe](T)p.[moe]([m5C])p.[moe](T)p.[moe]([m5C])[sp].d(T)[sp].d(A)[sp].d(T)[sp].d(T)[sp].d(T)[sp].d([m5C])[sp].d(T)[sp].d(T)[sp].d(T)[sp].d(G)[sp].[moe](T)p.[moe]([m5C])p.[moe]([m5C])[sp].[moe](A)}$$$$ (last 3' nucleoside missing) | 4 score 0-7
22 | RNA1{[moe](T)[sp].[moe](T)p.[moe]([m5C])p.[moe](T)p.[moe]([m5C])p.[moe](T)p.d(A)[sp].d(T)[sp].d(T)[sp].d(T)[sp].d([m5C])[sp].d(T)[sp].d(T)[sp].d(T)[sp].d(G)[sp].d(T)[sp].[moe]([m5C])p.[moe]([m5C])[sp].[moe](A)}$$$$ (last 3' nucleoside missing) | 4 score 0-7
23 | RNA1{[moe](T)[sp].[moe](T)p.[moe]([m5C])p.[moe](T)p.[moe]([m5C])p.d(T)[sp].d(A)[sp].d(T)[sp].d(T)[sp].d(T)[sp].d([m5C])[sp].d(T)[sp].d(T)[sp].d(T)[sp].d(G)[sp].[moe](T)p.[moe]([m5C])p.[moe]([m5C])[sp].[moe](A)}$$$$ (last 3' nucleoside missing) | 3 score 0-7
24 | RNA1{[moe](T)[sp].[moe](T)p.[moe]([m5C])p.[moe](T)p.d([m5C])[sp].d(T)[sp].d(A)[sp].d(T)[sp].d(T)[sp].d(T)[sp].d([m5C])[sp].d(T)[sp].d(T)[sp].d(T)[sp].[moe](G)p.[moe](T)p.[moe]([m5C])p.[moe]([m5C])[sp].[moe](A)}$$$$ (last 3' nucleoside missing) | 4 score 0-7
25 | RNA1{[moe](T)[sp].[moe]([m5C])p.[moe](A)p.[moe](G)p.[moe](A)p.d([m5C])[sp].d(T)[sp].d(T)[sp].d([m5C])[sp].d(T)[sp].d(T)[sp].d(G)[sp].d(T)[sp].d(T)[sp].d(G)[sp].[moe](T)p.[moe](T)p.[moe](G)[sp].[moe](T)}$$$$ (last 3' nucleoside missing) | 2 score 0-7
26 | RNA1{[moe](T)[sp].[moe]([m5C])p.[moe](A)p.[moe](T)p.[moe](G)p.d(G)[sp].d([m5C])[sp].d(T)[sp].d([m5C])[sp].d([m5C])[sp].d(A)[sp].d(A)[sp].d(T)[sp].d(A)[sp].d(T)[sp].[moe]([m5C])p.[moe](G)p.[moe](G)[sp].[moe]([m5C])}$$$$ (last 3' nucleoside missing) | 2.25 score 0-7
27 | RNA1{[moe](T)[sp].[moe]([m5C])p.[moe](A)p.[moe](T)p.[moe](T)p.d(T)[sp].d(T)[sp].d(A)[sp].d(T)[sp].d(T)[sp].d([m5C])[sp].d(T)[sp].d(G)[sp].d([m5C])[sp].d(T)[sp].[moe](T)p.[moe](T)p.[moe](G)[sp].[moe]([m5C])}$$$$ (last 3' nucleoside missing) | 2 score 0-7
